Assay results published in PMC8620685, “Effect of Selected Silyl Groups on the Anticancer Activity of 3,4-Dibromo-5-Hydroxy-Furan-2(5H)-One Derivatives” (Pharmaceuticals, 2021).
“Also recorded” adds a separate entry of the source. Where two headings read alike, the source gives them in different places.

What was measured:
HepG2 = assay: MTT assay, HepG2; type: cell-based; details: Homo sapiens, read-out: IC50 (cytotoxicity), HepG2
Protocol: (§1) The in vitro antitumor activities of the MBA and its derivatives (Table 2) were assayed against a panel of human cancer cell lines (HCT116, HCT-116 ^−/−p53, HT-29, MCF-7, SJSA-1, U2OS, HepG2 and Hep3B) using the MTT assay. As a reference drug we used 5-fluorouracil (5-FU). […] On the basis of in vitro antiproliferative activities, compounds 3b and 3c were selected for further mechanistic studies in the HCT-116 cell line.
Human cells lines: colon cancer (HCT-116 wt, HT-29), non-small lung carcinoma (A549), and bronchial epithelial cells (BEAS-2B) were obtained from American Type Culture Collection (ATCC, Manassas, VA, USA). Isogenic cell line HCT 116 p53^−/− (deleted both p53 alleles) were a gift from Dr. Bert Vogelstein. Other cell lines, namely MCF-7, SJSA-1, U2OS, HepG2, and Hep3B were received from the collection stored at Centre of Biotechnology of Silesian University of Technology. All cells were grown in DMEM with a high glucose medium (Sigma-Aldrich, Taufkirchen, Germany) supplemented with 10% (v/v) inactivated fetal bovine serum (FBS) (EURx, Gdańsk, Poland) and 1% antibiotics (10,000 μg/mL of streptomycin and 10,000 units/ml of penicillin) (Sigma-Aldrich, Taufkirchen, Germany) at 37 °C in humidified 5% CO2. The maximum concentration of DMSO in the culture media was 0.4%.
5 × 10^3 cells per well for the MCF-7 cell line and 2.5 × 10^3 cells per well for the other cell lines were seeded in 96-well plates to adhere for 24 h. Afterward, the cells were treated with tested compounds. After 72 hours of incubation, 50 μL 0.5 mg/ml solution of MTT (3-(4,5-dimethylthiazol-2-yl)-2,5-diphenyl-2H-tetrazolium bromide) were added to each well and the plates were incubated for 3 h at 37 °C. Next, the MTT solution was removed from the plates and formed formazan crystals were dissolved in 2-propanol (Avantor Performance Materials, Gliwice, Poland) containing 0.04 M hydrochloric acid (Avantor Performance Materials, Gliwice, Poland). The absorbance was measured at 570 nm wavelength using a multiwall plate reader (BioTek, Winooski, VT, USA). […]

[1] = system: panel of human cancer cell lines (HCT116, HCT-116 −/−p53, HT-29, MCF-7, SJSA-1, U2OS, HepG2 and Hep3B); assay: MTT assay, panel of human cancer cell lines; type: cell-based; details: 72 h incubation, read-out: IC50 range across all tested cancer cells
Protocol: as §1
Human cells lines: colon cancer (HCT-116 wt, HT-29), non-small lung carcinoma (A549), and bronchial epithelial cells (BEAS-2B) were obtained from American Type Culture Collection (ATCC, Manassas, VA, USA). Isogenic cell line HCT 116 p53^−/− (deleted both p53 alleles) were a gift from Dr. Bert Vogelstein. Other cell lines, namely MCF-7, SJSA-1, U2OS, HepG2, and Hep3B were received from the collection stored at Centre of Biotechnology of Silesian University of Technology. […]
5 × 10^3 cells per well for the MCF-7 cell line and 2.5 × 10^3 cells per well for the other cell lines were seeded in 96-well plates to adhere for 24 h. […] The absorbance was measured at 570 nm wavelength using a multiwall plate reader (BioTek, Winooski, VT, USA). […]

HCT-116 cells [2] = assay: Cell cycle analysis (PI staining, flow cytometry); type: cell-based, human; details: 24 h; for effect on progression of the cell cycle / increase of the sub-G1 population / sub-G1 cells: HCT-116; for sub-G1 cells: untreated cells 0.3%
Protocol: To better understand the origin of the higher susceptibility of colon cancer cells to MBA and its novel derivatives, compounds 3b and 3c were selected to test their ability to perturb the cell cycle in the HCT-116 cell line. […] However, a significant increase in the percentage of sub-G1 cells after treatment with compounds 3b and 3c was observed. Compound 3b increased the sub-G1 population by 10% and 31%, at a concentration of 10 μM and 20 μM, respectively, while compound 3c exerts such effect only by 10% at the highest tested concentration (Figure 2).
The HCT 116 cells were seeded in 6-well plates (Nunc, ThermoFisher, Waltham, MA, USA) at a density of 5 × 10^4 cells/well. After 24 h the medium was replaced with tested compounds. The cells were incubated for 24 h at 37 °C. Afterward, floating cells were collected and adherent cells were harvested by trypsinization and centrifuged at 600× g. The cells were washed with PBS (phosphate buffered saline) (Sigma-Aldrich, Taufkirchen, Germany) and then fixed in 70% ice-cold ethanol and stored at −20 °C overnight. The next day the cells were centrifuged at 600× g, washed with PBS, treated with 100 μg/mL RNase A solution (EURx, Gdańsk, Poland), 100 μg/ml solution of propidium iodide (PI) (Acros Organics, Geel, Belgium) and incubated for 30 min at room temperature in the dark. After staining, the cells were analyzed using a Becton Dickinson FACS Aria III sorter (BD Company, San Diego, CA, USA). Experiments were repeated at least twice. Data were analyzed using ModFit LTTM Software (Verity Software House, Topsham, ME, USA).

HCT-116 cells [3] = assay: Annexin V-FITC/PI apoptosis assay; type: cell-based, human
Protocol: To verify this thesis, we utilized annexin-V/PI double staining of cells, which were subsequently subjected to flow cytometric analysis.
The HCT 116 cells were seeded in 6-well plate (Nunc, ThermoFisher, Waltham, MA, USA) at a density of 5 × 10^4 cells/well and allowed to attach. After 24 h the medium was replaced with tested compounds. The cells were then incubated for 24 h at 37 °C. Next, both floating and adherent cells were harvested and centrifuged at 600× g. The cells were washed with PBS (phosphate buffered saline) (Sigma-Aldrich, Taufkirchen, Germany) and we followed instructions from the manufacturer of the Annexin V-FITC Apoptosis Detection Kit (Biotool, Jupiter, FL, USA). Fluorescence was measured using a Becton Dickinson FACS Aria III sorter (BD Company, San Diego, CA, USA). Experiments were repeated at least twice. Data were analyzed using FCE Express 7 Software (DeNovo Software, Pasadena, CA, USA).

HCT-116 cells [4] = assay: Clonogenic (colony-formation) assay; type: cell-based, human; details: HCT-116, 10 μM for 24 h, then 10 days in drug-free medium
Protocol: We next sought to investigate the effects of the MBA and compound 3b clonogenic potential of the HCT-116 cell line. The cells were treated with compounds 1 and 3b at 10 μM for 24 h. After harvesting, the cells were re-seeded and cultivated for another 10 days in a drug-free medium.
The HCT116 wt cells (5 × 10^4 cells/well) were plated in 6-well plates (Nunc, ThermoFisher, Waltham, USA) and treated with the tested compounds for 24 and 72 h. Cells were harvested by trypsinization and then re-seeded on the new 6-well plate (Nunc, ThermoFisher, Waltham, MA, USA) with a density of 2 × 10^3 cells/well. After 10 days the cells were washed with cold PBS (Sigma-Aldrich, Taufkirchen, Germany), fixed in ice-cold ethanol (−20 °C) for 3 minutes, air-dried, washed again with cold PBS and stained with 0.01% crystal violet (Sigma-Aldrich, Taufkirchen, Germany) in dH2O (deionized water) for 15 min. Next the plates were washed in dH2O and allowed to dry. Colonies were counted with a microscope (Zeiss, Oberkochen, Germany). Aggregates of 30 cells or more were considered as colonies. Photos were made using the G:Box transilluminator (Syngene, Cambridge, UK).

Compound | IC50 (HepG2; HepG2, MTT, 72 h incubation) | IC50 [1] | effect on progression of the cell cycle (HCT-116 cells [2]; 10 μM) | increase of the sub-G1 population (HCT-116 cells [2]; 10 μM) | effect on progression of the cell cycle (HCT-116 cells [2]; 20 μM) | increase of the sub-G1 population (HCT-116 cells [2]; 20 μM) | apoptotic (death) cells in total, annexin-V+/PI− plus annexin-V+/PI+ (HCT-116 cells [3]; 20 μM, 24 h, HCT-116) | induction of apoptosis / cell death in HCT-116 (HCT-116 cells [3]; HCT-116, statement in discussion) | clonogenic potential (re-growth of colonies) (HCT-116 cells [4]) | IC50 (HepG2; HepG2, 72 h) | sub-G1 cells (HCT-116 cells [2]; 10 μM) | percentage of cells in G1 phase (HCT-116 cells [2]; 20 μM, HCT 116, representative cytogram) | sub-G1 cells (HCT-116 cells [2]; 20 μM) | proapoptotic activity (HCT-116 cells [3]; 20 μM, 24 h, HCT-116)
CC(C)[Si](OC1OC(=O)C(Br)=C1Br)(C(C)C)C(C)C (stereo not drawn) [Compound 3b, 3,4-Dibromo-5-(triisopropylsilyloxy)-furan-2(5H)-one] | 15.6 ± 1.2 µM | 7.3 to 21.3 µM | neither the MBA nor its silyl derivatives 3b and 3c tested at 10 μM, influenced the progression of the cell cycle | 10% | did not alter the progression of the cell cycle | 31% | roughly 30% | rapidly triggered cell death | completely abolished the re-growth of HCT-116 colonies; also recorded: abolishes the clonogenic potential | – | – | – | – | –
CC(C)(C)[Si](OC1OC(=O)C(Br)=C1Br)(c1ccccc1)c1ccccc1 (stereo not drawn) [Compound 3c, 3,4-Dibromo-5-(tert-butyldiphenylsilyloxy)-furan-2(5H)-one] | – | 3.9 to 65.6 µM | neither the MBA nor its silyl derivatives 3b and 3c tested at 10 μM, influenced the progression of the cell cycle | – | did not alter the progression of the cell cycle | 10% | 18.5% | – | – | – | – | – | – | –
O=C1OC(O)C(Br)=C1Br (stereo not drawn) [MBA, 3,4-dibromo-5-hydroxyfuran-2(5H)-one, reference compound] | – | – | neither the MBA nor its silyl derivatives 3b and 3c tested at 10 μM, influenced the progression of the cell cycle | – | – | – | – | – | attenuated the clonogenic potential of HCT-116 to a much less extent | 91.7 ± 2.2 µM | 0.7% | 38.9% | 1.6% | negligible proapoptotic activity
